One test addresses VirF (Shigella flexneri, UniProt P0A2T1). Kind of test: Shigella virB-lacZ reporter gene assay. On the set-up: endogenously expressed VirF in a Shigella strain carrying a virB-lacZ reporter construct; endogenous in cells; host or cells: S. flexneri strain BS536 (virB-lacZ). The format is cell-based, S. flexneri. How it is done:
Colonies of S. flexneri strain BS536 that were red on TSA plates containing Congo red were grown overnight in Luria-Bertani broth at 30° C. to maintain low basal expression from the virB promoter. The overnight grown cultures were diluted 1:100 into 10 ml of the same medium with either 0.3% DMSO or different concentrations of SE-1 dissolved in DMSO (final concentration 0.3% DMSO). Cultures were grown at 37° C. in a shaking incubator to an OD600 of ˜0.4, centrifuged to pellet the cells and then resuspended in Z buffer for a two-fold concentration of the cells. Control cultures were grown at 30° C., a temperature at which virF expression is not induced (37), to illustrate the basal level of expression from the virB promoter region. β-Galactosidase assays were performed, with incubation with the substrate o-nitrophenyl-β-D-galactopyranoside (ONPG) was at room temperature. Activities are presented as a percentage of the uninhibited, DMSO-only control sample. Three independent assays were performed with two replicates in each assay.

For test [1], the system named is LacI-repressed hts-lacZ fusion. Kind of test: LacI-repressed hts-lacZ control reporter fusion (β-galactosidase). It is filed as cell-based, E. coli. Conditions: hts-lacZ control (SME3359). An excerpt: The control strain for the secondary high-throughput screen and subsequent experiments was SME3359, and carries the LacI-repressed fusion and LacI-expressing pHG165lacI. The fusion consists of lacZ under the control of an artificial promoter (Phts) with an induced expression level similar to that of the induced rhaBAD operon. Phts is regulated by Lad and induced with IPTG. The Phts core promoter elements include a near-consensus −35 sequence and a −10 sequence followed by a lacO1 operator sequence that overlaps the transcription start site with the same spacing as lacO1 at lacZYA. To construct the upstream half of Phts, oligo 2829 was annealed to oligo 2788 and the primers were extended using the Expand High Fidelity PCR System (Roche Applied Science, Indianapolis, Ind.). The downstream half of the Phts promoter was constructed by similarly annealing and extending oligos 2789 and 2790.
The top hit identified in the screen was 1-ethyl-4-(nitromethyl)-3-quinolin-2-yl-4H-quinoline, Compound 2. […] Lysis/ONPG buffer (50 μL, as in Primary Screen) was added to each well and the plate was immediately placed into a PowerWave XS plate reader (BioTek Instruments, Inc., Winooski, Vt.), set to read the OD420 of each well every 15 min for 4 hr. […] Due to differences in kinetics of lacZ reporter expression, the rhaB-lacZ strains were analyzed at 4 hours and the hts-lacZ strain was analyzed at 1 hr. Percent activity was calculated for each condition as described above, using the single time point with appropriate OD420 levels for each strain. […] IC50 and maximal inhibition values were calculated using the XLfit add-in for Microsoft Excel (ID Business Solutions, Guildford, UK), and graphs were drawn using Prism (GraphPad, La Jolla, Calif.).
In vivo dose-response assays were performed using a procedure described previously. […] Bacterial cultures were mixed with varying concentrations of SE-1 (2.2% DMSO, final), induced with 6.5 mM IPTG for 3 h at 37° C., lysed and β-galactosidase activity was measured. […] IC50 values were calculated and graphs were drawn using Prism (GraphPad, La Jolla, Calif.).

SMILES strings stand for the structures.

Sequence of VirF (P0A2T1 whole entry): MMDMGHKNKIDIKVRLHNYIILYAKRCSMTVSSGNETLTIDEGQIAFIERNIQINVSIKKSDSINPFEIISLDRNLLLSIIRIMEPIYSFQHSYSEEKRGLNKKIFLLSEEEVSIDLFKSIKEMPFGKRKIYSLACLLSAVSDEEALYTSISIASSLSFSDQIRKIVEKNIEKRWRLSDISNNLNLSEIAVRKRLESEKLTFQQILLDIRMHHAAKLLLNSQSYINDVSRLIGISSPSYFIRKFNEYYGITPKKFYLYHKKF

For orientation: IC50 means the concentration that inhibits the measured activity by half. High values mean a need for much substance, low ones inhibition by little substance. In turn, `CCCCN1C=C(c2ccc3ccccc3n2)C(C[N+](=O)[O-])c2ccccc21` (stereo not shown) [Compound 1, 1-butyl-4-(nitromethyl)-3-quinolin-2-yl-4H-quinoline] displayed an IC50 against VirF of around 30 µM. In addition, the “maximum inhibition of virB-lacZ expression” value at VirF (40 μM SE-1) is “greater than two fold”. Moreover, the “inhibition of the LacI-repressed fusion” value in test [1] is on record as “small amount of non-specific inhibition”; in test [1] (listed as SE-1), “some non-specific inhibition”.

For the origin of these results see patent US20140088144A1, “INHIBITING MICROBIAL INFECTIONS” (THE UNIVERSITY OF KANSAS, priority 2012, published 2014).
